Data from paper PMC11044151, “Development of Half-Sandwich Ru, Os, Rh, and Ir Complexes Bearing the Pyridine-2-ylmethanimine Bidentate Ligand Derived from 7-Chloroquinazolin-4(3H)-one with Enhanced Antiproliferative Activity” (ACS Omega, 2024).

Assays:
SW620C = assay: Neutral red uptake antiproliferative assay, MDR line SW620C; format: cell-based, human; conditions: for IC50: exposure time 72 h, n = 3, ABCG2-overexpressing MDR line; for activity factor IC50(1)/IC50(3a–4d), SW620C: vs corresponding amine (R)-1 or (S)-1, 72 h
Text: (§1) Next, we evaluated the cytotoxicity of the synthesized complexes toward the panel of six multidrug-resistant (MDR) cell lines derived from SW620 and characterized by the overexpression of various ABC proteins, namely, ABCG2 (SW620C and SW620Mito), ABCC1 (SW620M and SW620E), and ABCB1 (SW620D, SW620E, and SW620V) (Table 3, Figures S29 and S32). […] The activity of the complexes derived from the ligand (S)-2 is also considerably higher than that of the compounds containing the ligand (R)-2. The cytotoxicity of both rhodium 4c and iridium 4d complexes is higher than that of amine (S)-1. In the case of 4c, the increase in cytotoxicity is low, with the highest value of 3.7-fold for the SW620Mito line. […] Compound 4d also exerts a 2.1- and 2.6-fold higher cytotoxicity than […] against the SW620C and SW620D lines.
(§2) For this purpose, neutral red uptake assay was performed. […] The results were presented as a percentage of control.

MCF7 = assay: cells; conditions: for IC50: read-out: IC50 MCF7, exposure time 72 h, n = 3, 95% CI given; for activity factor IC50(1)/IC50(3a–4d), MCF7: vs corresponding amine (R)-1 or (S)-1, 72 h
Text: (§3) To assess the impact of conjugating half-sandwich complexes with amines 1 via an imine-pyridine ligand on biological activity, we examined the antiproliferative potential of (R)- and (S)-1 and organometallic conjugates 3a–d and 4a–d in selected human cancer cell lines: alveolar basal epithelial cell adenocarcinoma (A549), colorectal adenocarcinomas (Colo205 and SW620), colorectal carcinoma (HCT116), hepatocellular carcinoma (HepG2), and breast adenocarcinoma (MCF7). The choice of cell lines was dictated by results of previously published clinical trials on ispinesib.[49],[50]
(§4) Cell lines used in this study were purchased from the American Type Culture Collection via LGC Standards. Human normal lung fibroblasts (MRC-5), alveolar basal epithelial cell adenocarcinoma (A549), colorectal adenocarcinoma (Colo205), hepatocellular carcinoma (HepG2), breast adenocarcinoma (MCF7), and colorectal adenocarcinoma (SW620) and its MDR variants[55] were cultured in standard conditions (37 °C, 5% CO2, 100% relative humidity) in high glucose DMEM medium supplemented with GlutaMax, HEPES (ThermoFisher Scientific) and 10% fetal bovine serum (EURx, Poland). All cell lines were tested for Mycoplasma contamination using a MycoProbe mycoplasma detection kit (R&D System).
(§5) For this purpose, neutral red uptake assay was performed. 10^4 of cells were seeded per well of a 96-well plate and left overnight to allow cells to attach to the surface. Then, the cells were exposed to a desired concentration of tested compounds. Stock solutions were prepared in DMSO and were used immediately after preparation. The final concentration of DMSO was constant and nontoxic (0.1% v/v). After 70 h of culture, neutral red was added to the final concentration of 1 mM. After 2 h of incubation with the dye, the medium was aspirated and cells were washed with ice-cold PBS. The dye was released using 100 μL of the solubilizer (1% acetic acid in 50% ethanol) on an orbital shaker (10 min). The absorbance at 540 nm was measured using an EnVision multilabel plate reader (PerkinElmer). […] The IC90 and IC50 parameters were calculated using GraphPad Prism v9 software using the five-parameter nonlinear logistic regression model.

Colo205 = assay: cells; conditions: for IC50: read-out: IC50 Colo205, exposure time 72 h, n = 3, 95% CI given; for activity factor IC50(1)/IC50(3a–4d), Colo205: vs corresponding amine (R)-1 or (S)-1, 72 h
Text: as §3, §4, §5

HepG2 = assay: cells; conditions: for IC50: read-out: IC50 HepG2, exposure time 72 h, n = 3, 95% CI given; for activity factor IC50(1)/IC50(3a–4d), HepG2: vs corresponding amine (R)-1 or (S)-1, 72 h
Text: as §3, §4, §5

A549 = assay: Neutral red uptake antiproliferative assay, A549; conditions: for IC50: read-out: IC50 A549, exposure time 72 h, n = 3, 95% CI given; for activity factor IC50(1)/IC50(3a–4d), A549: vs corresponding amine (R)-1 or (S)-1, 72 h
Text: as §3, §4, §5

SW620 cells [1] = assay: ROS generation, dihydrorhodamine 123 oxidation assay; format: cell-based, human; conditions: SW620, 1 μM compound, 4 h, DHR123 with 10 μM verapamil; vs control or (R)- and (S)-1
Text: Metal complexes often induce reactive oxygen species (ROS) generation in cells,[51] which may increase their cytotoxic activity compared to purely organic molecules. To study the impact of the synthesized compounds on ROS production, we have measured the ROS generation in SW620 cells by the dihydrorhodamine 123 (DHR123) oxidation assay (Figure 9). However, there is no correlation between the antiproliferative potential and the ability of a compound to generate ROS.
Dihydrorhodamine 123 oxidation was used as an indicator of intracellular ROS production. For this purpose, SW620 cells were seeded in 6-well plates at a density of 10^5 cells per well. The cells were left overnight (time needed for them to attach to the surface). Then, 1 μM tested compounds were added along with 1 μM DHR123. Additionally, since DHR123 is a substrate of ABCB1 (which may interfere in this assay), 10 μM verapamil, an inhibitor of this protein, was added. The cells were cultured for an additional 4 h at 37 °C, and then the cells were harvested by trypsinization, resuspended in a complete medium, and analyzed using a LSRII flow cytometer (Becton Dickinson) in a FITC channel (530/30 nm). The results are presented as a percentage of control (median fluorescence in the presence of DMSO).

SW620 = assay: Neutral red uptake antiproliferative assay, SW620; format: cell-based, human; conditions: for IC50: exposure time 72 h, n = 3, 95% CI given; for activity factor IC50(1)/IC50(3a–4d), SW620: vs corresponding amine (R)-1 or (S)-1, 72 h
Text: as §3, §4, §5

SW620V = assay: Neutral red uptake antiproliferative assay, MDR line SW620V; format: cell-based, human; conditions: for IC50: exposure time 72 h, n = 3, ABCB1-overexpressing MDR line; for activity factor IC50(1)/IC50(3a–4d), SW620V: vs corresponding amine (R)-1 or (S)-1, 72 h
Text: as §1, §2

HCT116 = assay: cells; conditions: for IC50: read-out: IC50 HCT116, exposure time 72 h, n = 3, 95% CI given; for activity factor IC50(1)/IC50(3a–4d), HCT116: vs corresponding amine (R)-1 or (S)-1, 72 h
Text: as §3, §5

SW620 cells [2] = assay: Cell cycle distribution by flow cytometry, SW620; format: cell-based, human; conditions: concentration equal to IC75 of (S)-1 / (R)-1, mean ± SEM, n = 3; for Cell cycle fraction G1, 24 h / Cell cycle fraction G2/M, 24 h / Cell cycle fraction S, 24 h: SW620, 24 h; for Cell cycle fraction G1, 48 h / Cell cycle fraction G2/M, 48 h / Cell cycle fraction S, 48 h: SW620, 48 h
Description: Ispinesib leads to the formation of monopolar mitotic spindles and a blockade of chromosome segregation in cancer cells. Using flow cytometry, we assessed the cell cycle distribution in the SW620 and SW620E cells exposed to the studied compounds for 24 and 48 h. […] Both complexes, 3c and 3d, decrease the percentage of cells in the G1/G0 phase and increase the percentage in the S and G2/M phases. […] Furthermore, prolonged exposure to the compounds increases the percentage of cells in the G2/M phase, with the most intensive effect observed for 3c and 3d.
SW620 and SW620E cells lines (vulnerable and resistant variants, respectively) were seeded in 6-well plates at a density of 10^5 cells per well. […] After 24 h, the cells were trypsinized and fixed with ice-cold 70% v/v ethanol. The cells were stained with 75 μM propidium iodide with 50 Kunitz units of RNase A in PBS for 30 min at 37 °C. All samples were analyzed using a LSRII flow cytometer (Becton Dickinson) at a PE channel ([…]). Cell cycle phase distribution was determined using a built-in cell cycle module (Watson pragmatic algorithm) by FlowJo 7.6.1 software.

SW620Mito = assay: Neutral red uptake antiproliferative assay, MDR line SW620Mito; format: cell-based, human; conditions: for IC50: exposure time 72 h, n = 3, ABCG2-overexpressing MDR line; for activity factor IC50(1)/IC50(3a–4d), SW620Mito: vs corresponding amine (R)-1 or (S)-1, 72 h
Text: as §1, §2

SW620E = assay: Neutral red uptake antiproliferative assay, MDR line SW620E; format: cell-based, human; conditions: for IC50: exposure time 72 h, n = 3, ABCC1- and ABCB1-overexpressing MDR line; for activity factor IC50(1)/IC50(3a–4d), SW620E: vs corresponding amine (R)-1 or (S)-1, 72 h
Text: as §1, §2

SW620M = assay: Neutral red uptake antiproliferative assay, MDR line SW620M; format: cell-based, human; conditions: for IC50: exposure time 72 h, n = 3, ABCC1-overexpressing MDR line; for activity factor IC50(1)/IC50(3a–4d), SW620M: vs corresponding amine (R)-1 or (S)-1, 72 h
Text: as §1, §2

SW620D = assay: Neutral red uptake antiproliferative assay, MDR line SW620D; format: cell-based, human; conditions: for IC50: exposure time 72 h, n = 3, ABCB1-overexpressing MDR line; for activity factor IC50(1)/IC50(3a–4d), SW620D: vs corresponding amine (R)-1 or (S)-1, 72 h
Text: as §1, §2

[3] = test system: human cancer cell lines (A549, Colo205, HCT116, HepG2, MCF7, SW620); assay: Neutral red uptake antiproliferative assay, panel of human cancer cell lines; format: cell-based; conditions: cell line not stated
Text: as §3
as §5, with “The dye was released using 100 μL of the solubilizer (1% acetic acid in 50% ethanol) on an orbital shaker (10 min).” left out

[4] = compared with the amine of opposite configuration, (R)-1

Compound | IC50 (SW620C) [nM] | activity factor IC50(1)/IC50(3a–4d), SW620C (SW620C) | IC50 (MCF7) [nM] | activity factor IC50(1)/IC50(3a–4d), MCF7 (MCF7) | IC50 (Colo205) [nM] | activity factor IC50(1)/IC50(3a–4d), Colo205 (Colo205) | IC50 (HepG2) [nM] | activity factor IC50(1)/IC50(3a–4d), HepG2 (HepG2) | IC50 (A549) [nM] | activity factor IC50(1)/IC50(3a–4d), A549 (A549) | IC50 (SW620) [nM] | activity factor IC50(1)/IC50(3a–4d), SW620 (SW620) | IC50 (SW620V) [nM] | activity factor IC50(1)/IC50(3a–4d), SW620V (SW620V) | IC50 (HCT116) [nM] | activity factor IC50(1)/IC50(3a–4d), HCT116 (HCT116) | Cell cycle fraction G1, 24 h (SW620 cells [2]) [%] | Cell cycle fraction G2/M, 24 h (SW620 cells [2]) [%] | Cell cycle fraction S, 24 h (SW620 cells [2]) [%] | Cell cycle fraction G1, 48 h (SW620 cells [2]) [%] | further results
CC(C)[C@H](N=Cc1ccccn1)c1nc2cc(Cl)ccc2c(=O)n1Cc1ccccc1.Cc1ccc(C(C)C)cc1.F[P-](F)(F)(F)(F)F.[Cl-].[Ru+2] [Compound 4a, [(cym)Ru((S)-2)Cl]PF6] | 4360 | (0.764) | 634 | (6.17) | 939 | (6.46) | 1890 | (1.27) | 3250 | (2.17) | 2910 | (0.986) | 5010 | (0.687) | 3760 | (2.14) | 52.8 ± 1.2 | 33.3 ± 1.0 | 13.5 ± 0.4 | 46.8 ± 0.7 | increased cytotoxicity vs corresponding amine 1, MCF7 (MCF7): approximately 6 fold; increased cytotoxicity vs corresponding amine 1, Colo205 (Colo205): approximately 6 fold; ROS generation (in words) (SW620 cells [1]): increase the level of ROS; Cell cycle fraction G2/M, 48 h (SW620 cells [2]): 39.1 ± 0.3%; Cell cycle fraction S, 48 h (SW620 cells [2]): 13.5 ± 0.8%; IC50 (SW620Mito): 3680 nM; activity factor IC50(1)/IC50(3a–4d), SW620Mito (SW620Mito): (1.06); IC50 (SW620E): 5460 nM; activity factor IC50(1)/IC50(3a–4d), SW620E (SW620E): (0.741); IC50 (SW620M): 3240 nM; activity factor IC50(1)/IC50(3a–4d), SW620M (SW620M): (1.07); IC50 (SW620D): 6010 nM; activity factor IC50(1)/IC50(3a–4d), SW620D (SW620D): (0.690)
CC(C)[C@H](N=Cc1ccccn1)c1nc2cc(Cl)ccc2c(=O)n1Cc1ccccc1.Cc1c(C)c(C)[c-](C)c1C.F[P-](F)(F)(F)(F)F.[Cl-].[Ir+3] [Compound 4d, [(Cp*)Ir((S)-2)Cl]PF6] | 343 | (9.71) | 216 | (18.10) | 216 | (28.1) | 218 | (11.01) | 764 | (9.23) | 139 | (20.65) | 411 | (8.37) | 222 | (36.31) | 51.7 ± 1.2 | 28.9 ± 0.4 | 14.3 ± 0.2 | 44.1 ± 0.5 | higher cytotoxicity than (R)-1, SW620C (SW620C; [4]): 2.1 fold; Cell cycle fraction G2/M, 48 h (SW620 cells [2]): 40.6 ± 1.3%; Cell cycle fraction S, 48 h (SW620 cells [2]): 13.7 ± 0.4%; IC50 (SW620Mito): 365 nM; activity factor IC50(1)/IC50(3a–4d), SW620Mito (SW620Mito): (10.71); IC50 (SW620E): 663 nM; activity factor IC50(1)/IC50(3a–4d), SW620E (SW620E): (6.11); higher cytotoxicity compared to (R)-1 [3]: 1.6 fold; higher cytotoxicity compared to (S)-1 [3]: 2.6 fold; IC50 (SW620M): 387 nM; activity factor IC50(1)/IC50(3a–4d), SW620M (SW620M): (8.94); higher cytotoxicity than (R)-1, SW620D (SW620D; [4]): 2.6 fold; IC50 (SW620D): 425 nM; activity factor IC50(1)/IC50(3a–4d), SW620D (SW620D): (9.76)
